“And” between values parts separate entries of the source, which are not always exact repeats. Equal entries are not always repeated.
Legend:
[1] = tested on: acyl-CoA: sphingosine N-acyltransferase; assay: Enzyme activity in treated cerebral cortex culture: acyl-CoA: sphingosine N-acyltransferase; type: cell-based, rat; parameters: key: *: No accelerating activity; details: culture treated with 15 μM for 40 hours
Protocol: (§1) After the mixture was cultured for 40 hours, the resulting culture was harvested and pulverized in a homogenized buffer (50 mM Hepes, 0.32M sucrose) by using a chip type sonicator to prepare an enzyme source.
0.25 mM sphingosine and 0.45 mM ^14 C palmitoyl CoA (8.3×10^5cpm) were reacted in the presence of ATP (adenosine 5'-triphosphate). After ceramide which was a reaction product was subjected to solvent extraction, the extract was concentrated and evaporated to dryness, and its radioactivity was counted.

physchem = details: physiological saline
GM3 synthase = assay: Enzyme activity in treated cerebral cortex culture: GM3 synthase; type: cell-based, rat; details: culture treated with 15 μM for 40 hours
Protocol: as §1
After the mixture containing a reaction product was developed by a reverse phase thin layer plate, a portion corresponding to the reaction product was scratched off, and its radioactivity was counted.

[2] = tested on: serine palmitoyltransferase; assay: Enzyme activity in treated cerebral cortex culture: serine palmitoyltransferase; type: cell-based, rat; details: culture treated with 15 μM for 40 hours
Protocol: as §1
1.5 mM palmitoyl CoA (coenzyme A) and 0.1 mM ^14 C serine (8.3×10^5 cpm) were reacted in the presence of 0.5 mM pyridoxalphosphoric acid. After 3-keto-sphingosine which was a reaction product was extracted, the extract was concentrated and evaporated to dryness, and its radioactivity was counted.

[3] = tested on: primary cultured rat cerebral neurocytes; assay: Ganglioside content (ganglioside-binding sialic acid) of primary cultured neurocytes; type: cell-based; details: Rattus norvegicus, 72 h, culture for 3 days, control defined as 100%
Protocol: Rat fetuses at the 18th day of pregnancy were taken out, and forebrain base portions of the fetuses were extracted aseptically and cut into small pieces by scissors. After the pieces were treated with papain (in a phosphate buffer containing 0.02% L-cysteine containing 180 U papain, 0.02% bovine serum albumin and 0.5% glucose, pH 7.4, at 37° C. for 30 minutes), they were washed with a mixed solution (DF medium) of 1:1 of a Dulbecco modified Eagle's medium and a Ham's F12 medium and suspended in a DF medium containing 5% bovine fetal serum and 5% equine serum. This neurocyte suspension was charged into a culture plate with 24 wells (Falcon, Primaria) in an amount of 1×10^6 cells/well. […] After completion of the culture, the cells in the respective wells were washed with a phosphate buffer and recovered by rubber policeman. Further, a ganglioside fraction was extracted by adding chloroform/methanol/water (1:2:0.8) and shaking the mixture for 5 minutes. […] The no addition group (control) which was defined as 100% was compared with the test groups, and the results are shown in Table 1.

[4] = tested on: primary cultured rat cerebral neurocytes (hippocampal neurons); assay: Neurite extension of primary cultured hippocampal neurocytes
Protocol: Hippocampi of rat brains at the 0th day after birth were extracted aseptically, subjected to enzyme treatment with papain in the same manner as in Example 1 and then washed with a DF medium. […] After culture for 24 hours, the neurocytes were fixed by paraformaldehyde, and a degree of neurite extension was recorded by microphotographs and then observed.

GSL = details: J. Cell. Physiol., vol. 141, pp. 573-583 (1989); cited from earlier work
GD3 synthase = assay: Enzyme activity in treated cerebral cortex culture: GD3 synthase; type: cell-based, rat; details: culture treated with 15 μM for 40 hours; 2400 min, 15 µM
Protocol: as §1
GM3 as an acceptor substrate was reacted with 30 mM CMP-^14 C sialic acid (2.88×10^6 cpm) as a donor substrate. After the mixture containing a reaction product was developed by a reverse phase thin layer plate, a portion corresponding to the reaction product was scratched off, and its radioactivity was counted.

[5] = tested on: LacCer (lactosylceramide) synthase; assay: Enzyme activity in treated cerebral cortex culture: LacCer synthase; type: cell-based, rat; details: culture treated with 15 μM for 40 hours
Protocol: as §1
GlcCer as an acceptor substrate was reacted with 0.315mM UDP (uridine diphosphate)-^3 H galactose (2.7×10^8 cpm) as a donor substrate. After the mixture containing ^3 H-LacCer which was a reaction product was developed by a silica gel thin layer plate, a portion corresponding to the reaction product was scratched off, and its radioactivity was counted.

[6] = tested on: rat cerebral cortex neurocytes; assay: Synapse formation measured as frequency of intracellular Ca2+ fluctuation; type: cell-based
Description: Further, as a method of measuring synapse formation relatively simply and easily, there has been developed a multipoint observation system of Ca^2+ in neurocytes using Fura-2, and it has been confirmed that the number of synapse formation is in direct proportion to frequency of intracellular Ca^2+ fluctuation in synchronization therewith (Br. J. Pharmacol., 89, 191-198, 1986; Neurosci. Lett., 78, 69-74, 1987). We investigated influences of L-threo-FDMP and D-threo-PDMP exerted on synapse formation between rat cerebral cortex neurocytes by using this method, and the results are shown below.

B16 melanoma cells = assay: Glycolipid biosynthesis (3H-galactose incorporation into GSL); type: cell-based; details: culture for 24 hours
Protocol: B16 melanoma cells derived from neuroectoderm were charged into a culture plate with 12 wells in an amount of 1×10^5 cells/well and cultured for 24 hours in a Dulbecco modified Eagle's medium containing 10% bovine fetal serum. […] After 24 hours, the medium was removed, the cells were washed with 1 ml of a phosphate buffer containing 0.1% EDTA, 1 ml of 0.25% trypsin was added, and the mixture was left to stand at 37° C. for 5 minutes. […] 4 ml of methanol and chloroform were added successively to the mass of the cells to extract all GSL, followed by evaporation to dryness. The residue was subjected to alkali hydrolysis with chloroform:methanol (1:1) containing 0.2N sodium hydroxide, neutralized with acetic acid and then evaporated to dryness. The product evaporated to dryness was dissolved in water and then desalted with a Sep-Pak C18 cartridge (Waters). The adsorbed GSL was dissolved out by 1 ml of methanol and 4 ml of chloroform:methanol (1:1) and then evaporated to dryness under a nitrogen stream. […] Thereafter, the positions of glucosylceramide, lactosylceramide and ganglioside GM3 were confirmed by iodine coloration, they were scratched off from TLC, respectively, and radioactivities thereof were measured by a liquid scintillation counter.

[7] = tested on: cerebral cortexes of rat fetuses (explants); assay: Explant culture of cerebral cortexes, neurocytes having neurites
Description: The effect of neurite extension by administering the medicine after the culture was judged by measuring the number of neurocytes having neurites existing in the explants (the cultured tissues).

## CCCCCCCCCC(=O)N[C@@H](CN1CCOCC1)[C@@H](O)c1ccccc1 [L-threo-PDMP, 1-phenyl-2-decanoylamino-3-morpholino-1-propanol]
[1]
  Accelerating activity when enzyme activity of control is defined as 100%: Acyl-CoA: sphigosine N-acyltransferase: *
physchem
  solubility: ≤ 500 µg/mL
GM3 synthase
  Accelerating activity when enzyme activity of control is defined as 100%: GM3 synthase: 197.4%
[2]
  Accelerating activity when enzyme activity of control is defined as 100%: Serine palmitoyltransferase: 148.2%
[3]
  activity at 20 µM: 127%
[4]; 5 μM, 20 μM and 40 μM, culture for 24 hours, FIG. 2
  neurite extension (microphotographs): significant neurite-extending action
[4]; 1 to 40 μM, FIG. 3
  lengths of the neurites, statistical processing: accelerates neurite extension with a significant different of P<0.005
GSL
  biosynthesis of GSL: has possibility of accelerating biosynthesis of GSL
GD3 synthase
  Accelerating activity when enzyme activity of control is defined as 100%: GD3 synthase: 300% and 302.5%
[5]
  Accelerating activity when enzyme activity of control is defined as 100%: LacCer synthase: 243.3%
[6]; FIG. 4
  number of synapse formation (frequency of intracellular Ca2+ fluctuation): increase in the number of synapse formation depending on a dose
[6]; culture for 8 hours, neurocytes of cerebral cortexes of rat fetuses
  concentration at which a pharmaceutical effect has been observed: 40 µM
B16 melanoma cells
  concentration at which a pharmaceutical effect has been observed: 25 µM
[7]; 10 μM, cultured for 2 days, medium containing no serum
  number of neurocytes having neurites in the explants versus group to which no medicine was administered: about one and half times
[7]; culture of cerebral cortex pieces of rat fetuses
  concentration range in which a pharmaceutical effect has been observed: 5 to 20 µM

— patent US5849326A, “Method for treating neuronal diseases via administration of 2-acylaminopropanol derivatives” (Seikagaku Corporation, priority 1993, dated 1998)
